Data from patent US20250090865A1, “LESIONAL DOSIMETRY FOR TARGETED RADIOTHERAPY OF CANCER” (Memorial Sloan-Kettering Cancer Center, priority 2021, published 2025).
Like-named read-outs stand apart in the source and are kept apart here.

What was measured:
[1] = test system: individual lesions of metastatic thyroid cancer
Protocol: Dosimetry and estimation of average lesion uptake. A workflow was established for four-time point measurement of individual lesion radioiodine kinetics to generate area under the curve (AUC) estimation for accurate determination of the radiation dose in Gray (Gy) to individual lesions in patients undergoing RAI therapy for DTC. Positron emission tomography (PET/CT) imaging was performed after oral administration of 222 MBq (6.0 mCi) of ^124I—NaI (3D Imaging, Waco, TX). Whole-body imaging was performed at 4, 24, 48, and 96 hours after oral administration of the radioactivity (FIG. 4). Regions of interest were obtained over all visible lesions >0.5 cm within the body and multiple parameters were obtained for later analysis. The following parameters were captured in a database for each patient and each lesion: size in three dimensions (cm); standardized uptake value (SUV), maximum and average; lean body weight; and activity concentration in microcurie/gram. (FIG. 9). For these patients, the best clearance fitting curve was estimated using a dual exponential equation model comprising lesion uptake and clearance. Prior to integration, clearance fitting was adjusted to replace the decay constant of ^124I with ^131I, the therapy isotope of interest, and then integrated to obtain the AUC. This AUC was multiplied by the equilibrium dose constant for the non-penetrating P-emissions of ^131I, yielding the lesion-absorbed dose in Gy.
Range of ^131I activity to treat a chosen efficacy rate for RAI in mDTC patients. A multi-disciplinary team of nuclear medicine specialists, endocrinologists, medical oncologists, and medical physicists met weekly to make treatment decisions based on the PET data generated, including data from the methods disclosed herein.
(§1) The target radiation dose of 2000 cGy was chosen because doses above this level are often used as the threshold for patients to receive further radioiodine treatment. Based on the PI now available for the AUC, a simple calculation of the relationship between ^124I and ^131I uptake can yield a PI for the dose [dlow−dhigh]. […] Thus, the higher boundary (dhigh) corresponds to the activity to treat 97.5% of the lesions with the given uptake. By varying this boundary, it is possible to select an activity that will target 95%, 90%, or fewer of the lesions.
The full parameter data set consists of: anatomical descriptor, mean size (cm), lesion dose per projected unit millicurie of administered ^131I activity with and without partial volume correction (5), half-life based on a linear slop between day 3 and 5 as well as based on exponential curve fitting, area under the curve based on an integrated curve fit, estimated activity per gram at 48 and 72 hours post-administration, SUV and SUL (based on lean body mass) at 24, 48, and 72 hours post-administration, the administered activity to deliver 2,000 cGy, the radiation dose estimate resulting from the actual therapeutic amount administered to the patient, and the maximum projected dose that could have been achieved had the maximum tolerated activity been administered. This dataset was used as the input to derive a statistical model to predict the radiation dose to lesions.

[2] = test system: metastatic thyroid cancer; conditions: patients with any lesion with predicted dose >2000 cGy
Text: Prediction of activity to deliver 2000 cGy. An operational definition in the methods disclosed herein is that a patient with any lesion with a predicted dose of >2000 cGy would likely respond to treatment. […] A total of 208 lesions are included in the analysis. The prediction is limited for lesions with an SUV >1, as no treatment is planned for lesions with no uptake. Lesions that received no treatment (n=39) were included in the analysis, as prediction is still feasible. […] In (SUV_48_)___.

[3] = test system: individual lesions of metastatic thyroid cancer; remark: listed apart in the source
Text: Predicting AUC based on a single time point. One goal of this study was to use a single time point to predict the overall area under the radioiodine lesion activity retention curve to estimate the radiation-absorbed dose to lesions without the need for costly additional PET/CT imaging to fully characterize the kinetic behavior. […] For this estimation, the unit is the lesion, and a generalized estimating equation approach is used to estimate the parameters (intercept, slope, and robust variance matrix) accounting for the correlation between lesions in the same patient. Log-transformed values of the uptake and doses are used to ensure the data are normally distributed.
Second, using the estimations for R and the covariance matrix, a prediction interval (PI) is calculated. A PI differs from a confidence interval, as it aims to predict with 95% confidence where future measurements will fall. In our case, if we observed the same value of SUV at 48 h for 100 new lesions, the PI is the range in which 95 of those lesions' AUCs will be found. As difficulties arose when analytically constructing the PI, simulated prediction was used to calculate PIs following the steps detailed in Gelman and Hill, Data Analysis Using Regression and Multilevel/Hierarchical Models (1st Edition, 2007) and summarized in Appendix A.
To validate the accuracy of the prediction, a leave-one-patient-out cross-validation approach was used. For each patient i (i=1, . . . , n), the linear regression parameters are re-estimated using n−1 patients (excluding i), and PIs are calculated for each lesion in patient i based on their measured predictor values.
For those lesions, the actual observed AUC is then compared to the PI. When using 95% PI, it is expected that 95% of the observed values will fall into the corresponding PIs; i.e., 5% will be outside the prediction. In addition, for each left-out patient, an error of prediction is calculated corresponding to the squared difference between the predicted and true AUC values for each lesion. This squared error is average over all the lesions of all the patients to obtain a cross-validated error.
as §1

[4] = median of 21 patients
Protocol: Maximum Tolerated Activity (MTA).
To perform these studies, serial blood samples and total body measurements were conducted to determine β- and photon radiation dose contributions to blood (a proxy for the dose-limiting bone marrow) from a pre-therapy tracer administration of either ^124I or ^131I.

[5] = test system: individual lesions of metastatic thyroid cancer; test: ^124I PET/CT imaging of lesion radioiodine uptake; assay type: in vivo, human; conditions: 48 h after oral ^124I
Text: Population. The present study includes consecutive 21 patients studied under two different RB-approved protocols who underwent imaging. Patients who were considered candidates for RAI treatment of DTC were enrolled. All patients had histologically confirmed, metastatic thyroid cancer.
Dosimetry and estimation of average lesion uptake. […] (FIG. 9).

In the case of `[131I-].[Na+]` [^131I, Iodine-131], the “Teff” value ([1]; patient 1, 13 lesions) is reported as 8.02 days, the “Teff” value ([1]; patient 2, 18 lesions) is reported as 4.28 days and the “Teff” value ([1]; patient 3, 14 lesions) is reported as 0.45 days. For the same molecule, the “Teff” value ([1]; patient 4, 12 lesions) was 3.16 days, the “Teff” value ([1]; patient 5, 10 lesions) was 1.48 days and the “Teff” value ([1]; patient 6, 16 lesions) was 1.59 days. For the same molecule, the “Teff” value ([1]; patient 7, 23 lesions) was 2.48 days, the “Teff” value ([1]; patient 8, 6 lesions) was 4.41 days and the “Teff” value ([1]; patient 9, 8 lesions) was 3.03 days. For the same molecule, the “Teff” value ([1]; patient 10, 4 lesions) was 1.26 days, the “Teff” value ([1]; patient 11, 11 lesions) was 2.98 days and the “Teff” value ([1]; patient 12, 3 lesions) was 3.8 days. The “Teff” value ([1]; patient 13, 13 lesions) was 1.55 days, the “Teff” value ([1]; patient 14, 5 lesions) was 1.74 days and the “Teff” value ([1]; patient 15, 17 lesions) was 3.79 days. For the same molecule, the “Teff” value ([1]; patient 16, 6 lesions) was 4.77 days, the “Teff” value ([1]; patient 17, 6 lesions) was 8.04 days and the “Teff” value ([1]; patient 18, 12 lesions) was 1.69 days. For the same molecule, the “Teff” value ([1]; patient 19, 17 lesions) was 1.55 days, the “Teff” value ([1]; patient 20, 13 lesions) was 1.74 days and the “Teff” value ([1]; patient 21, 10 lesions) was 4.63 days. The “probability of complete reduction” value [2] was 100%, the “probability of durable partial RECIST response” value [2] was 75% and the “AUC 95% PI” value ([3]; SUV at 48 h 2) was 1.5-9.1 uCi · hr/g per mCi. The “AUC Mean Estimate” value ([3]; SUV at 48 h 2) was 4.0 uCi · hr/g per mCi, the “AUC 95% PI” value ([3]; SUV at 48 h 4) was 3.3-20.3 uCi · hr/g per mCi and the “AUC Mean Estimate” value ([3]; SUV at 48 h 4) was 8.1 uCi · hr/g per mCi. For the same molecule, the “AUC 95% PI” value ([3]; SUV at 48 h 6) was 4.8-29.2 uCi · hr/g per mCi, the “AUC Mean Estimate” value ([3]; SUV at 48 h 6) was 12.1 uCi · hr/g per mCi and the “AUC 95% PI” value ([3]; SUV at 48 h 8) was 6.4-38.8 uCi · hr/g per mCi. For the same molecule, the “AUC Mean Estimate” value ([3]; SUV at 48 h 8) was 16.1 uCi · hr/g per mCi, the “AUC 95% PI” value ([3]; SUV at 48 h 10) was 8.6-48.4 uCi · hr/g per mCi and the “AUC Mean Estimate” value ([3]; SUV at 48 h 10) was 20.2 uCi · hr/g per mCi. For the same molecule, the “AUC 95% PI” value ([3]; SUV at 48 h 15) was 11.9-71.0 uCi · hr/g per mCi, the “AUC Mean Estimate” value ([3]; SUV at 48 h 15) was 30.3 uCi · hr/g per mCi and the “AUC 95% PI” value ([3]; SUV at 48 h 20) was 16.1-97.1 uCi · hr/g per mCi. For the same molecule, the “AUC Mean Estimate” value ([3]; SUV at 48 h 20) was 40.4 uCi · hr/g per mCi, the “AUC 95% PI” value ([3]; SUV at 48 h 30) was 24.3-147.4 uCi · hr/g per mCi and the “AUC Mean Estimate” value ([3]; SUV at 48 h 30) was 60.6 uCi · hr/g per mCi. The “AUC 95% PI” value ([3]; SUV at 48 h 50) was 40.8-252.9 uCi · hr/g per mCi, the “AUC Mean Estimate” value ([3]; SUV at 48 h 50) was 101.2 uCi · hr/g per mCi and the “AUC 95% PI” value ([3]; SUV at 48 h 100) was 82.3-479.6 uCi · hr/g per mCi. For the same molecule, the “AUC Mean Estimate” value ([3]; SUV at 48 h 100) was 202.6 uCi · hr/g per mCi, the “AUC 95% PI” value ([3]; SUV at 48 h 200) was 164.2-951.2 uCi · hr/g per mCi and the “AUC Mean Estimate” value ([3]; SUV at 48 h 200) was 405.8 uCi · hr/g per mCi. For the same molecule, the “AUC 95% PI” value ([3]; SUV at 48 h 300) was 257.8-1476.2 uCi · hr/g per mCi, the “AUC Mean Estimate” value ([3]; SUV at 48 h 300) was 609.2 uCi · hr/g per mCi and the “Maximum Tolerated Activity (mCi)” value [4] was 426 mCi.

For `[124I-].[Na+]` [^124I, ^124I—NaI], the “SUV(48 h)” value ([5]; patient 1, 13 lesions) was 8.03, the “SUV(48 h)” value ([5]; patient 2, 18 lesions) was 80.1 and the “SUV(48 h)” value ([5]; patient 3, 14 lesions) was 3.25. The “SUV(48 h)” value ([5]; patient 4, 12 lesions) was 7.4, the “SUV(48 h)” value ([5]; patient 5, 10 lesions) was 1.85 and the “SUV(48 h)” value ([5]; patient 6, 16 lesions) was 27.8. The “SUV(48 h)” value ([5]; patient 7, 23 lesions) was 35, the “SUV(48 h)” value ([5]; patient 8, 6 lesions) was 1.73 and the “SUV(48 h)” value ([5]; patient 9, 8 lesions) was 4.35. The “SUV(48 h)” value ([5]; patient 10, 4 lesions) was 26.2, the “SUV(48 h)” value ([5]; patient 11, 11 lesions) was 11.30 and the “SUV(48 h)” value ([5]; patient 12, 3 lesions) was 0.7. For the same molecule, the “SUV(48 h)” value ([5]; patient 13, 13 lesions) was 1.30, the “SUV(48 h)” value ([5]; patient 14, 5 lesions) was 0.90 and the “SUV(48 h)” value ([5]; patient 15, 17 lesions) was 385.3. For the same molecule, the “SUV(48 h)” value ([5]; patient 16, 6 lesions) was 8.30, the “SUV(48 h)” value ([5]; patient 17, 6 lesions) was 0.80 and the “SUV(48 h)” value ([5]; patient 18, 12 lesions) was 25.1. The “SUV(48 h)” value ([5]; patient 19, 17 lesions) was 204.6, the “SUV(48 h)” value ([5]; patient 20, 13 lesions) was 2.30 and the “SUV(48 h)” value ([5]; patient 21, 10 lesions) was 10.8.
